Laboratory results published in US9675065B2 (priority 2011, dated 2017).
Entries after “also recorded” stand apart in the source; their conditions may differ.

Columns and labels:
Staphylococcus aureus = format: cell-based; details: pH 7
[1] = test system: S. aureus (Staphylococcus aureus ATCC#6538); format: cell-based
[2] = 10 ml of 5 wt % stock solution + 100 microliters acidified silver chloride, ceramic cylinder

Compound: furoyl chlorate
- biocide efficacy (in words) (Staphylococcus aureus): no antimicrobial efficacy
- rate of kill / biocide efficacy (in words) [1]: excellent rate of kill; also recorded: excellent biocide efficacy

Compound: OO [hydrogen peroxide]
- gas formation on the test cylinder [2]: slow formation of gas
